As usually defined, the melting point is the temperature of the solid-liquid transition.

Consider 9 molecules from patent US9617230B2, “Creatine prodrugs, compositions and methods of use thereof” (Farmington Pharma Development, priority 2014, dated 2017).

Where only a bound is given, the exact number is not on record here.

Data set [1] can be described thus: Stability of prodrugs in simulated gastric fluid (SGF) with and without pepsin. The format is in vitro ADME. The conditions noted are these: prodrug 10 μM, 37° C. The procedure: For determination of stability in simulated gastric fluid (SGF), prodrug (10 μM) is incubated in SGF (0.2% NaCl w/v, 0.7% HCl v/v, pH1.2) with and without addition of pepsin (3.2 g of purified pepsin per liter with an activity of 800-2500 units per mg of protein) at 37° C. At selected time points (e.g., 0, 15, 30, 60 and 120 min) 50 μL aliquots are removed and neutralized by addition of 50 μL of 0.1M sodium bicarbonate solution, followed by 150 μL of ice-cold acetonitrile. Samples are centrifuged at 4,000×g for 15 min at 4° C., and the supernatants are removed and analyzed for prodrug, creatine and creatinine concentrations by LC-MSMS (Table 2).

A short description of data set [2]: Stability of prodrugs in simulated intestinal fluid (SIF) with and without pancreatin. The format is in vitro ADME. As to conditions: prodrug 10 μM, 37° C. The procedure:
For determination of stability in simulated intestinal fluid (SIF), prodrug (10 μM) is incubated in SIF (0.68% KH2PO4 w/v, 0.86% NaOH v/v, pH 6.8) with and without addition of pancreatin (1% w/v) at 37° C. At selected time points (e.g., 0, 15, 30, 60 and 120 min) 50 μL aliquots are removed and the reactions are terminated by addition of 150 μL of ice-cold acetonitrile. Samples are centrifuged at 4,000×g for 15 min at 4° C., and the supernatants are removed and analyzed for prodrug, creatine and creatinine concentrations by LC-MSMS (Table 3).

A short description of data set [3]: Stability in mouse plasma incubations. The format is in vitro ADME. How it is done:
(§1) To determine prodrug stability in mouse, rat, human or plasma from other species, prodrugs (10 μM) or positive controls (10 μM, propantheline or procaine) are incubated in undiluted plasma. Duplicate samples of prodrugs and controls are prepared and analyzed. Stock solutions of prodrugs are prepared in DMSO (10 mM) and diluted to 0.1 mM in pH 7.4 phosphate buffer to prepare spiking solutions. The prodrug spiking solutions are aliquoted (10 μL) into 96-well plates. Pre-warmed (37° C.) plasma (90 μL) is added to the wells designated for 5, 15, 30, 45 and 60 min time points; for t=0 min the quench solution (400 μL acetonitrile) is added directly to the prodrug containing well followed by 90 μL of pre-warmed plasma. At 5, 15, 30, 45 and 60 min 400 μL aliquots of acetonitrile are added to the wells to stop the reaction. After quenching, the plates are shaken for 10 min (600 rpm) and then centrifuged at 5500 g for 15 min. Aliquots (50 μL) are transferred to the analysis plate and diluted with 100 μL ultrapure water (Millipore) for LC-MSMS quantitation of prodrug concentrations, and in some cases creatine and/or creatinine. Chromatography columns (e.g., Atlantis HILIC Silica, Gemini C-18, Ultimate XB-C18) are selected based upon the lipophilicity and polarity of each prodrug. LC-MSMS platforms (e.g., Sciex API4000, Sciex API6500) are also selected based on the requirements of each prodrug. The stabilities of the compounds of the present disclosure (prodrugs) in mouse plasma incubations is shown in Table 4 and stability in human plasma incubations is shown in Table 5.

Data set [4] can be described thus: Stability in human plasma incubations. The format is in vitro ADME. How it is done:
as §1

Data set [5] can be described thus: Metabolic stability in mouse liver microsomal incubations. The format is in vitro ADME. The procedure:
(§2) Incubations are conducted at 37° C. in the presence or absence of NADPH regenerating system to indicate whether metabolism proceeds via an NADPH requiring enzyme (i.e. P450s, FMOs, NADPH-P450 reductase or other oxidase enzymes). Duplicate samples of prodrugs and controls are prepared and analyzed. Stock solutions of prodrugs are prepared in DMSO (10 mM) and diluted to 0.05 mM in a mixture of 25% MeOH/pH 7.4 phosphate buffer to prepare spiking solutions. The prodrug spiking solutions are aliquoted (10 μL) into 96-well plates. Pre-warmed (37° C.) microsome solution (80 μL) is added to the wells designated for 5, 15, 30, 45 and 60 min time points and incubated for 10 min before initiating the reaction with 10 μL of NADPH regenerating solution. For t=0 min the quench solution (300 μL acetonitrile) is added directly to the prodrug containing well followed by the microsome solution and NADPH solution. Incubations of the prodrugs in heat-inactivated fractions or buffer are conducted to differentiate enzymatic from non-enzymatic degradation. At specified time points (e.g., 0, 5, 10, 20, 30 and 60 min), samples are taken and terminated with an equal volume of cold acetonitrile containing a suitable internal standard (e.g., labetalol, tolbutamide). After quenching, the plates are centrifuged at 4000 g for 20 min. Aliquots (100 μL) are transferred to the analysis plate and diluted with 400 μL ultrapure water (Millipore) for LC-MSMS quantitation of prodrug concentrations, and in some cases creatine and/or creatinine. Chromatography columns (e.g., ACE 5 Phenyl, Phenomenex C18 Synergi Hydro-RP, Atlantis HILIC Silica) are selected based upon the lipophilicity and polarity of each prodrug. LC-MSMS platforms (e.g., Sciex API4000, Sciex API6500) are also selected based on the requirements of each prodrug. The metabolic stability of the compounds of the present disclosure of in mouse liver microsomal incubations is shown in Table 6 and human liver microsomal incubations is shown in Table 7.

The nature of data set [6]: Metabolic stability in human liver microsomal incubations. The format is in vitro ADME. As to conditions: human liver microsomes. How it is done:
as §2
A general note: Microsomes from liver hold many membrane-bound enzymes, among them those of drug oxidation.

Data set [7] is described as follows: In vitro release of d3-creatine and d3-creatinine from d3-prodrugs in mouse liver homogenate (MLH) incubations. The data set is classed as in vitro ADME. How it is done: For assessment of the ability of prodrugs to release creatine, and to release creatine preferentially to unwanted cyclization to creatinine, d3-labeled (deuterium labeled methyl group) prodrugs are incubated with liver homogenates (e.g., mouse, human) specially prepared to preserve N-reductase activity. The use of d3-labelled prodrugs is essential in order to distinguish prodrug-derived creatine (d3-creatine) from high concentrations of endogenous (non-labeled) creatine. Incubations (37° C.) are performed in 100 mM potassium phosphate buffer, pH 6.0 to optimize N-reductase activity. Prodrugs are tested at final concentrations of 20 μM and 200 μM. Approximately 4-5 mg of homogenate is used for each reaction. Co-factor (NADH) is included at a final concentration of 1 mM. Benzamidoxime (500 μM final concentration) is used as a positive control for N-reductase activity. N-reductase activity is confirmed by conversion of benzamidoxime into benzamidine. Negative controls include incubations without NADH (to assess NADH-independent prodrug cleavage) and incubations without liver homogenate (but with NAPD) to assess non-enzymatic prodrug cleavage under the conditions of the assay. […] Sample supernatants are analyzed by LC-MSMS (HILIC column) for determination of d3-prodrug, d3-creatine and d3-creatinine levels (Table 8).

For data set [8] the following is noted: athletes and body builders, 2-3 gm/day; cited from earlier work.
For data set [9] the following is noted: animals fed a diet containing up to 1% cyclocreatine; cited from earlier work.

Molecule `[2H]C([2H])([2H])N(CC(=O)OCCCCCCC)c1nc(=O)o[nH]1` [Compound E, heptyl 2-[(5-oxo-2H-1,2,4-oxadiazol-3-yl)-(trideuteriomethyl)amino]acetate] registered a melting point of 110 to 115 °C. The half-life at 10 μM in data set [1] (simulated gastric fluid (SGF) with pepsin, SGF pH 1.2 with pepsin, read-out: T1/2 (min) (+) pepsin) was greater than 360 min. Moreover, in [1] (simulated gastric fluid (SGF) without pepsin, SGF pH 1.2 without pepsin, read-out: T1/2 (min) (−) pepsin), the half-life at 10 μM is greater than 360 min. Besides, the half-life at 10 μM in data set [2] (simulated intestinal fluid (SIF) with pancreatin, SIF pH 6.8, title: with pancreatin (1% w/v), read-out: T1/2 (min) (+) pepsin) was greater than 360 min. Further, the half-life at 10 μM in [2] (simulated intestinal fluid (SIF) without pancreatin, SIF pH 6.8, title: without pancreatin, read-out: T1/2 (min) (−) pepsin) is greater than 360 min. Also, the half-life at 10 μM in data set [3] is greater than 3 h. Further, the “% Remaining 5 min” value in data set [3] (10 μM, 5 min) was 100%. The “% Remaining 60 min” value in data set [3] (10 μM, 60 min) is 89.0%. Also, in data set [4], the half-life at 10 μM came out at 2.57 h. Further, the “% Remaining 5 min” value in data set [4] (5 min, 10 μM) was 101%. The “% Remaining 60 min” value in data set [4] (1 h, 10 μM) is listed as 75.6%. Moreover, in [5] (mouse liver microsomes, no NADPH, 30 min, 10 μM), the “% Remaining (No NADPH) 30 min” value is on record as 15.6%. For the same molecule, the “% Remaining (w/NADPH) 5 min” value in data set [5] (mouse liver microsomes, with NADPH, 5 min, 10 μM) stood at 89.1%. The “% Remaining (w/NADPH) 30 min” value in data set [5] (mouse liver microsomes, with NADPH, 30 min, 10 μM) is listed as 26.0%. Also, the half-life at 10 μM in [5] (pH 7.4, mouse liver microsomes) was 0.333 h. Besides, in data set [5] (pH 7.4, mouse liver microsomes, read-out: in vivo Clint), the CLint scaled at 10 μM is 407 mL/min/kg. Further, the half-life at 10 μM in data set [6] is greater than 1.5 h. For the same molecule, in [6] (no NADPH, 30 min, 10 μM), the “% Remaining (No NADPH) 30 min” value is reported as 106%. Besides, the CLint scaled at 10 μM in data set [6] (read-out: in vivo Clint) is less than 21 mL/min/kg. In addition, the “% Remaining (w/NADPH) 5 min” value in data set [6] (with NADPH, 5 min, 10 μM) worked out at 103.8%. Besides, the “% Remaining (w/NADPH) 30 min” value in data set [6] (with NADPH, 30 min, 10 μM) is reported as 82.1%. Further, the “Concentration (μM) at 120 min, Prodrug” value in [7] (Negative Control (No MLH)) is 240 µM. Also, in [7] (Prodrug + MLH + NADH), the “Concentration (μM) at 120 min, Prodrug” value stood at 4.70 µM.
Take `CCOC(=O)CN(C)c1noc(=O)[nH]1` [Example 26, ethyl 2-[methyl-(5-oxo-4H-1,2,4-oxadiazol-3-yl)amino]acetate]: the melting point was 120 to 123 °C.
The same measure, in the same setting: with `CN(CC(=O)O)c1noc(=O)[nH]1` [Example 27, 2-[methyl-(5-oxo-4H-1,2,4-oxadiazol-3-yl)amino]acetic acid] the figure was 150 to 155 °C; with `[2H]C([2H])([2H])N(CC(=O)OC)c1nc(=O)o[nH]1` [Example 28, Step 3, methyl 2-[(5-oxo-2H-1,2,4-oxadiazol-3-yl)-(trideuteriomethyl)amino]acetate], 120 to 125 °C; with `[2H]C([2H])([2H])N(CC(=O)O)c1nc(=O)o[nH]1` [Example 28, Step 4, 2-[(5-oxo-2H-1,2,4-oxadiazol-3-yl)-(trideuteriomethyl)amino]acetic acid], 150 to 155 °C.
Still for that read-out and setting: with `[2H]C([2H])([2H])N(CC(=O)OC(C)C)c1nc(=O)o[nH]1` [Example 28, Step 5C, isopropyl 2-[(5-oxo-2H-1,2,4-oxadiazol-3-yl)-(trideuteriomethyl)amino]acetate] the figure was 143 to 145 °C; with `[2H]C([2H])([2H])N(CCO)c1nc(=O)o[nH]1` [Example 29, 3-[2-hydroxyethyl(trideuteriomethyl)amino]-2H-1,2,4-oxadiazol-5-one], 98 to 104 °C.
For the molecule `CN(CC(=O)O)C(=N)N.O` [creatine monohydrate], in data set [8], the adverse side effects result is reported as “without adverse side effects”.
In the case of `NC1=NCCN1CC(=O)O` [cyclocreatine], the adverse effects result in [9] was “do not exhibit adverse effects”.
